Experimental data published in ChEMBL document CHEMBL1201862, “PubChem BioAssay data set” (2004).
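Dose response: 5 concentrations. Exposure: 48 h. Format: 96-well plates. Endpoint: linear interpolation; highest concentration if not reached. Here, GI50 denotes the concentration required for 50% inhibition of growth.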 Calls of active or inactive are those of the source. No stated cut-off is given here; in the data, active = GI50 up to about 1.1 µM and inactive = higher.

Assays:
Experiment in all cases: NCI anticancer screen, dose series, 48 h
[1] = test system: CCRF-CEM
[2] = test system: HCT-15
[3] = test system: SK-OV-3
[4] = test system: NCI-H522
[5] = test system: SF-295
[6] = test system: NCI-H23
[7] = test system: COLO 205
[8] = test system: OVCAR-5
[9] = test system: SK-MEL-5
[10] = test system: OVCAR-4
[11] = test system: HCT-116
[12] = test system: 786-0
[13] = test system: HOP-92
[14] = test system: KM12
[15] = test system: UO-31
[16] = test system: PC-3
[17] = test system: HCC 2998
[18] = test system: SN12C
[19] = test system: MCF7
[20] = test system: A498

Row | Structure (SMILES) | GI50 [1] | GI50 [2] | GI50 [3] | GI50 [4] | GI50 [5] | GI50 [6] | GI50 [7] | GI50 [8] | GI50 [9] | GI50 [10] | GI50 [11] | GI50 [12] | GI50 [13] | GI50 [14] | GI50 [15] | GI50 [16] | GI50 [17] | GI50 [18] | GI50 [19] | GI50 [20]
1 | CC(Cc1ccc(O)cn1)(NC(=O)c1ccccc1)C(=O)O (stereo unspecified) | > 100 µM (inactive) | > 100 µM | > 100 µM (inactive) | > 100 µM (inactive) | > 100 µM (inactive) | > 100 µM (inactive) | > 100 µM (inactive) | > 100 µM (inactive) | > 100 µM (inactive) | > 100 µM (inactive) | > 100 µM (inactive) | > 100 µM (inactive) | 74 µM (inactive) | > 100 µM (inactive) | > 100 µM (inactive) | > 100 µM (inactive) | > 100 µM (inactive) |  |  | 
2 | CN(C)CC1CCC/C(=C\c2ccc(Cl)c(Cl)c2)C1=O (stereo unspecified) | 0.843 µM (active) | 2.41 µM | 6.78 µM (inactive) | 2.13 µM (inactive) | 12.4 µM (inactive) | 8.45 µM (inactive) | 2.67 µM (inactive) | 21 µM (inactive) | 9.82 µM (inactive) | 3.05 µM (inactive) | 1.97 µM (inactive) | 1.75 µM (inactive) | 4.38 µM (inactive) | 1.84 µM (inactive) | 2.74 µM (inactive) |  | 10.7 µM (inactive) | 3.42 µM (inactive) | 1.64 µM (inactive) | 13.9 µM (inactive)
3 | O=C1CC2C=CC1C2CO (stereo unspecified) | > 100 µM (inactive) | > 100 µM | > 100 µM (inactive) | > 100 µM (inactive) | > 100 µM (inactive) |  | > 100 µM (inactive) | > 100 µM (inactive) | > 100 µM (inactive) | > 100 µM (inactive) | > 100 µM (inactive) | > 100 µM (inactive) | > 100 µM (inactive) | > 100 µM (inactive) | > 100 µM (inactive) |  | > 100 µM (inactive) | > 100 µM (inactive) |  | > 100 µM (inactive)
4 | CC1=C(C)CC2(SC1)C(=O)c1ccccc1C2=O | 93.8 µM (inactive) | > 100 µM | > 100 µM (inactive) | > 100 µM (inactive) | > 100 µM (inactive) |  | > 100 µM (inactive) | > 100 µM (inactive) | > 100 µM (inactive) | > 100 µM (inactive) | > 100 µM (inactive) | > 100 µM (inactive) | 65.8 µM (inactive) | > 100 µM (inactive) | 66.1 µM (inactive) |  | > 100 µM (inactive) | > 100 µM (inactive) |  | > 100 µM (inactive)
5 | CC(=O)Nc1ccc(/C=C(\NC(=O)c2ccccc2)c2nc3ccc4c(c3[nH]2)C(=O)c2ccccc2C4=O)cc1 | 0.904 µM (active) | 39.2 µM | 72.4 µM (inactive) | 4.9 µM (inactive) | 22.6 µM (inactive) | 21.6 µM (inactive) | 57.8 µM (inactive) | > 100 µM (inactive) | 21.8 µM (inactive) | 56.8 µM (inactive) | 12.2 µM (inactive) | 35.6 µM (inactive) | 22.9 µM (inactive) |  | 1.59 µM (inactive) |  | > 100 µM (inactive) | 25.4 µM (inactive) |  | 7.78 µM (inactive)
6 | O=C(CNC(=O)OCc1ccccc1)Oc1ccccc1 | > 100 µM (inactive) | > 100 µM | > 100 µM (inactive) | > 100 µM (inactive) | > 100 µM (inactive) | > 100 µM (inactive) | > 100 µM (inactive) | > 100 µM (inactive) | > 100 µM (inactive) | > 100 µM (inactive) | > 100 µM (inactive) | > 100 µM (inactive) | > 100 µM (inactive) | > 100 µM (inactive) | > 100 µM (inactive) |  | > 100 µM (inactive) | > 100 µM (inactive) |  | > 100 µM (inactive)
7 | O=C1/C(=C\c2cccc(Oc3ccccc3)c2)SC(c2ccccc2)N1c1ccccc1Cl (stereo unspecified) | 6.87 µM (inactive) | 41.9 µM | 25.4 µM (inactive) | 13.6 µM (inactive) | 33.8 µM (inactive) | 17.5 µM (inactive) | 21.8 µM (inactive) | 76 µM (inactive) | 15.1 µM (inactive) | 37.1 µM (inactive) | 14.9 µM (inactive) | 25.6 µM (inactive) | 14.6 µM (inactive) | 23 µM (inactive) | 31 µM (inactive) |  | 17.5 µM (inactive) | 26 µM (inactive) | 28.1 µM (inactive) | 46.1 µM (inactive)
8 | N#Cc1c(-c2ccccc2)cc(-c2cccs2)c(C#N)c1N | > 100 µM (inactive) | > 100 µM | > 10 µM (inactive) | > 100 µM (inactive) | > 100 µM (inactive) |  | > 10 µM (inactive) |  | > 100 µM (inactive) | > 100 µM (inactive) | > 100 µM (inactive) | > 100 µM (inactive) | > 100 µM (inactive) | > 100 µM (inactive) |  |  | > 100 µM (inactive) | > 100 µM (inactive) |  | > 100 µM (inactive)
9 | COc1cc(-c2cc(CCC(=O)Nc3ccccc3[N+](=O)[O-])n(-c3ccc([N+](=O)[O-])cc3[N+](=O)[O-])n2)ccc1O | > 10 µM (inactive) | 40.7 µM | > 10 µM (inactive) | > 10 µM (inactive) | > 10 µM (inactive) | > 10 µM (inactive) | > 10 µM (inactive) | > 10 µM (inactive) | > 10 µM (inactive) | > 10 µM (inactive) | > 10 µM (inactive) | > 10 µM (inactive) | > 10 µM (inactive) | > 10 µM (inactive) | > 10 µM (inactive) |  | > 10 µM (inactive) | > 10 µM (inactive) |  | > 10 µM (inactive)
10 | Clc1ccc(SC(/C=C/NNC2=NN=C(c3ccccc3)C(c3ccccc3)N2)c2ccccc2)cc1 (stereo unspecified) | 17.1 µM (inactive) | 26.9 µM | 68.1 µM (inactive) | 17.9 µM (inactive) | 19.3 µM (inactive) | 10.4 µM (inactive) | 20.8 µM (inactive) | 33.8 µM (inactive) | 14.7 µM (inactive) | 17.9 µM (inactive) | 16.1 µM (inactive) | 28.2 µM (inactive) | 7.98 µM (inactive) | 21 µM (inactive) | 13.2 µM (inactive) |  | 19.7 µM (inactive) | 29.4 µM (inactive) |  | 28.2 µM (inactive)
11 | O=C(O/N=C1/CCC/C1=C\c1ccccc1)c1ccc([N+](=O)[O-])cc1 | > 100 µM (inactive) | > 100 µM | > 100 µM (inactive) | > 100 µM (inactive) | > 100 µM (inactive) | > 100 µM (inactive) | > 100 µM (inactive) | > 100 µM (inactive) | > 100 µM (inactive) | > 100 µM (inactive) | > 100 µM (inactive) | > 100 µM (inactive) | > 100 µM (inactive) | > 100 µM (inactive) | 25.3 µM (inactive) |  | 11.7 µM (inactive) | > 100 µM (inactive) |  | > 100 µM (inactive)
12 | C[N+](C)(C)CC(=O)N/N=C/c1oc(-c2c(O)ccc3ccccc23)c(-c2c(O)ccc3ccccc23)c1[N+](=O)[O-] | 15.4 µM (inactive) |  | 14.2 µM (inactive) | 15.8 µM (inactive) | 17.1 µM (inactive) | 16.4 µM (inactive) | 21.9 µM (inactive) | 22.1 µM (inactive) | 8.87 µM (inactive) | 21.5 µM (inactive) | 12.2 µM (inactive) | 19.9 µM (inactive) | 12.7 µM (inactive) | 11.5 µM (inactive) | 7.36 µM (inactive) |  | 16 µM (inactive) | 24.2 µM (inactive) |  | 16.9 µM (inactive)
13 | COc1cc2c(cc1O)[C@H](C)C(c1ccc(OC)c(OC)c1)O2 (stereo partly specified) | 6.21 µM (inactive) | 3.08 µM | 9.48 µM (inactive) | 9.23 µM (inactive) | 6.56 µM (inactive) | 10.6 µM (inactive) | 20.4 µM (inactive) | 45.6 µM (inactive) | 6.01 µM (inactive) | 13 µM (inactive) | 3.6 µM (inactive) | 11.3 µM (inactive) | 10.4 µM (inactive) | 16.7 µM (inactive) | 5.69 µM (inactive) |  | 7.6 µM (inactive) |  |  | 22.6 µM (inactive)
14 | CC[N+](C)(C)c1ccc(C(=C2C=CC(=[N+](C)C)C=C2)c2ccc(N(C)C)cc2)cc1 | 7.05 µM (inactive) | 22.2 µM | 19.4 µM (inactive) | 2.79 µM (inactive) | 8.67 µM (inactive) | 17.7 µM (inactive) | 5.31 µM (inactive) | 52 µM (inactive) | 13.4 µM (inactive) | 15.1 µM (inactive) | 4.2 µM (inactive) | 5.94 µM (inactive) | 19.5 µM (inactive) | 4.55 µM (inactive) | 27.5 µM (inactive) |  | 6.17 µM (inactive) | 4.39 µM (inactive) |  | 15.9 µM (inactive)
15 | COc1cccc(/C=N/NC(N)=O)c1O | > 100 µM (inactive) | > 100 µM | > 100 µM (inactive) | > 100 µM (inactive) | > 100 µM (inactive) | > 100 µM (inactive) | > 100 µM (inactive) | > 100 µM (inactive) | > 100 µM (inactive) | > 100 µM (inactive) | > 100 µM (inactive) | > 100 µM (inactive) | > 100 µM (inactive) | > 100 µM (inactive) | > 100 µM (inactive) |  | > 100 µM (inactive) | > 100 µM (inactive) |  | > 100 µM (inactive)
16 | Cc1c(C(=O)O)n(C)c(=O)n(C)c1=O | > 100 µM (inactive) | > 100 µM | > 100 µM (inactive) | > 100 µM (inactive) | > 100 µM (inactive) | > 100 µM (inactive) | > 100 µM (inactive) | > 100 µM (inactive) | > 100 µM (inactive) | > 100 µM (inactive) | > 100 µM (inactive) | > 100 µM (inactive) | > 100 µM (inactive) | > 100 µM (inactive) | > 100 µM (inactive) |  | > 100 µM (inactive) | > 100 µM (inactive) |  | > 100 µM (inactive)
